# Laboratory results taken from publication PMC6302136, “Quantitative Chemotherapeutic Profiling of Gynecologic Cancer Cell Lines Using Approved Drugs and Bioactive Compounds^” (Translational Oncology, 2018).
# Where two headings read alike, the source gives them in different places.
# Experiments:
# [1] = system: ovarian cancer cell lines; experiment: qHTS ATPlite cell viability, ovarian cancer cell lines; type: cell-based, human; details: Ovarian cell line killer
# [2] = system: placental cancer cell lines (JAR, JEG-3); experiment: qHTS ATPlite cell viability, placental cancer cell lines; type: cell-based, human; details: for IC50: Homo sapiens; for Average SI: vs HEK 293T, >100 = inactive in HEK293T
# Procedure: (§1) The ATPlite luminescence assay system assay kit was used to determine cell viability. The reagent was reconstituted and prepared as described by the manufacturer. To measure the cell death caused by the compounds, cells were cultured in 4 μl of media for 16 hours at 37°C with 5% CO2 in assay plates, followed by the addition of DMSO or 16 SOC chemotherapeutic compounds dissolved in DMSO. SOC compounds were dosed at 11 concentrations (1:3 dilution) in quadruplicate from 57.5 μM to 0.977 nM using the automated Wako 1536 Pin Tool workstation and incubated at 37°C with 5% CO2 for 24, 48, or 72 hours. Four microliters of ATPlite, the ATP monitoring reagent, was then added to each well of the assay plates using the Multidrop Combi reagent dispenser followed by incubation for 15 minutes at room temperature. The resulting luminescence was measured using the ViewLux plate reader. Data were normalized for each drug using the largest luminescence value as 100% full cell viability (0% cell killing) and to the smallest luminescence value 0% viability (100% cell killing).
# The ATPlite assay to determine the IC50 values for each compound was conducted as described above. Plates were processed on the fully integrated Kalypsys robotic system.
# PA-1 cells = experiment: ATP content (ATPlite) cell viability assay in PA-1 cells; type: cell-based, human; details: for IC50: Homo sapiens, PA-1, confirmation screen, 48 h, read-out: Avg IC50; for Avg SI: PA-1 selective compounds, vs HEK 293T, >100 = inactive in HEK293T
# [3] = system: 11 gynecologic cancer cell lines; experiment: qHTS ATPlite cell viability, gynecologic cancer cell lines (ovarian, cervical, placental); type: cell-based, human; details: for Cell Lines Active: number of the 11 cancer cell lines in which the compound is active (<1 μM potency, >70% efficacy); for IC50 / Average SI: toxic compounds, average over all cancer cell lines, mean ± S.D.; for IC50: 48 h, read-out: Average IC50; for Average SI: selectivity index vs HEK 293T
# Procedure: as §1
# (§2) A qHTS [79], in which each compound was assayed in five concentrations (0.092, 0.46, 2.3, 11.5, and 57.5 μM), was performed for the primary compound screen using the NPC [80] and NPACT drug libraries at NCATS. The OBGYN cancer and HEK 293T control cells were seeded into 1536-well assay plates at 1000 cells per 4 μl/well and incubated at 37°C in 5% CO2 for 48 hours. The ATPlite assay to determine the IC50 values for each compound was conducted as described above. Plates were processed on the fully integrated Kalypsys robotic system.
# HEK 293T cells [4] = experiment: cells; details: 48 h; for IC50: read-out: IC50 (HEK 293T toxicity)
# Procedure: as §1, §2
# HeLa cells = experiment: qHTS ATPlite cell viability, HeLa cells; type: cell-based, human; details: for Avg SI: HeLa selective compounds, vs HEK 293T; for IC50: HeLa, confirmation screen, 48 h
# HEK 293T cells [5] = system: HEK 293T cells; design: method as in PMID 31498718; details: CellTiterGlo, cited from earlier work; for IC50: independent screen
# [6] = JEG-3, Placental cancer cell line killer, mean of cell lines fulfilling criteria, 48 h, read-out: Average IC50
# [7] = Placental cancer cell line killer
# [8] = HEK 293T, this screen (ATPlite)
compound,measurement,setting,value
Cc1cc(Nc2nc(N[C@@H](C)c3ccc(F)cc3)c(C#N)cc2F)[nH]n1 [AZ-960],IC50,"[1]; Homo sapiens, mean of cell lines fulfilling criteria, 48 h, read-out: Average IC50",12000 ± 7750 nM
same,Average SI,"[1]; vs HEK 293T, >100 = inactive in HEK293T",>100
C[C@@H](Oc1cc(-n2cnc3ccc(CN4CCN(C)CC4)cc32)sc1C(N)=O)c1ccccc1C(F)(F)F [GSK461364],IC50,[2]; [6],3.52 ± 0.133 µM
same,Average SI,[2]; [7],8.81 ± 0.333
CC(C)CC(=O)Nc1[nH]nc2c1CN(C(=O)C1CCN(C)CC1)C2(C)C [PHA-793887],IC50,PA-1 cells,194 nM
same,Avg SI,PA-1 cells,12.3
O=C(Nc1cccnc1)N1CCC(Cc2cccc(Oc3ccc(C(F)(F)F)cn3)c2)CC1 [PF-3845],IC50,[2]; [6],9.31 ± 1.15 µM
same,Average SI,[2]; [7],>100
CC[C@@H]1C(=O)N(C)c2cnc(Nc3ccc(C(=O)NC4CCN(C)CC4)cc3OC)nc2N1C1CCCC1 [BI-2536],IC90,[3]; Homo sapiens,39.7 nM
same,Cell Lines Active,[3],4
COc1cc(N2CCC(N3CCN(C)CC3)CC2)ccc1Nc1ncc(Cl)c(Nc2ccccc2S(=O)(=O)C(C)C)n1 [NVP-TAE684],IC50,[3],15700 ± 10000 nM
same,Average SI,[3],4.87 ± 7.61
same,Efficacy (%) (HEK 293T toxicity),HEK 293T cells [4]; [8],91.8%
same,IC50,HEK 293T cells [4]; [8],23400 nM
same,Avg SI,HeLa cells,28.0
same,IC50,HeLa cells,835 nM
same,"Efficacy (%) (independent screen, HEK 293T)",HEK 293T cells [5],126%
same,Independent Screen (confirmation of HEK 293T toxicity),HEK 293T cells [5],Confirmed toxic
same,IC50,HEK 293T cells [5],3650 nM
COc1cccc2c1C(=O)c1c(O)c3c(c(O)c1C2=O)C[C@@](O)(C(=O)CO)C[C@@H]3O[C@H]1C[C@H](N)[C@H](O[C@@H]2CCCCO2)[C@H](C)O1 [Pirarubicin],IC50,PA-1 cells,839 nM
same,Avg SI,PA-1 cells,14.6
COc1c(C)c2c(c(O)c1C/C=C(\C)CCC(=O)OCCN1CCOCC1)C(=O)OC2 [Mycophenolate mofetil],IC50,PA-1 cells,631 nM
same,Avg SI,PA-1 cells,>100
same,Avg SI,PA-1 cells; listed as mycophenolate mofetil,> 100
C[C@@H](Oc1ccc2[nH]nc(/C=C/c3cnn(CCO)c3)c2c1)c1c(Cl)cncc1Cl [LY2874455],Avg SI,HeLa cells,38.8
same,IC50,HeLa cells; Homo sapiens,240 nM
COc1ccc(-c2ccc3ncc4c(c3c2)n(-c2ccc(N3CCNCC3)c(C(F)(F)F)c2)c(=O)n4C)cn1 [NVP-BGT226],IC50,[3]; Homo sapiens,5340 ± 6560 nM
same,Average SI,[3],0.20 ± 0.26
same,Efficacy (%) (HEK 293T toxicity),HEK 293T cells [4]; [8],106%
same,IC50,"HEK 293T cells [4]; Homo sapiens, HEK-293T",258 nM
same,"Efficacy (%) (independent screen, HEK 293T)",HEK 293T cells [5],115%
same,Independent Screen (confirmation of HEK 293T toxicity),HEK 293T cells [5],Confirmed toxic
same,IC50,HEK 293T cells [5],14.5 nM
CCS(=O)(=O)c1cccc(-c2cc(C(=O)NC3CCN(C)CC3)c(C)c3[nH]c4ncc(C)cc4c23)c1 [TAK 901],Avg SI,HeLa cells,12.6
same,IC50,HeLa cells; Homo sapiens,699 nM
CCN(CC)Cc1ccc2cc(COC(=O)Nc3ccc(C(=O)NO)cc3)ccc2c1 [Givinostat],IC50,[3]; Homo sapiens,3500 ± 3880 nM
same,Average SI,[3],1.74 ± 1.25
same,Efficacy (%) (HEK 293T toxicity),HEK 293T cells [4]; [8],65.6%
same,IC50,"HEK 293T cells [4]; Homo sapiens, HEK-293T",2910 nM
same,toxicity to HEK 293T cells,HEK 293T cells [4]; human,equally toxic to HEK 293T cells
same,"Efficacy (%) (independent screen, HEK 293T)",HEK 293T cells [5],112%
same,Independent Screen (confirmation of HEK 293T toxicity),HEK 293T cells [5],Confirmed toxic
same,IC50,HEK 293T cells [5],1110 nM
CC[C@@]1(O)C(=O)OCc2c1cc1n(c2=O)Cc2c-1nc1ccccc1c2/C=N/OC(C)(C)C [Gimatecan],IC50,PA-1 cells,33.7 nM
same,Avg SI,PA-1 cells,12.5
same,IC90,"[3]; Homo sapiens, average IC90 over the cell lines in which the compound is active, read-out: IC90",275 ± 28 nM
same,Cell Lines Active,[3],4
N=C(N)c1ccc(OCCCCCOc2ccc(C(=N)N)cc2)cc1 [Nebupent],IC50,[2]; [6],4.9 ± 1.02 µM
same,Average SI,[2]; [7],>100
C=C(C)[C@H]1Cc2c(ccc3c2O[C@@H]2COc4cc(OC)c(OC)cc4[C@@H]2C3=O)O1 [Rotenone],IC50,"[2]; JEG-3, 48 h, read-out: Average IC50 (μM)",0.0418 ± 0.0134 µM
same,Average SI,[2]; [7],19.5 ± 6.26
CCc1c2c(nc3ccc(O)cc13)-c1cc3c(c(=O)n1C2)COC(=O)[C@]3(O)CC [SN-38],IC90,"[3]; average IC90 over the cell lines in which the compound is active, read-out: IC90",592 nM
same,Cell Lines Active,[3],4
